# Measured values reported in patent US20080287430A1, “Furan Compounds Useful As Ep1 Receptor Antagonists” (priority 2005, published 2008).
# Structures can show the parent of a compound that is named as a salt.
# Biological target: T1, human EP1 receptor (Homo sapiens, UniProt P34995)
# T1 construct: expressed in transfected cells; host or cells: CHO-K1
# T1 sequence (P34995 1-402): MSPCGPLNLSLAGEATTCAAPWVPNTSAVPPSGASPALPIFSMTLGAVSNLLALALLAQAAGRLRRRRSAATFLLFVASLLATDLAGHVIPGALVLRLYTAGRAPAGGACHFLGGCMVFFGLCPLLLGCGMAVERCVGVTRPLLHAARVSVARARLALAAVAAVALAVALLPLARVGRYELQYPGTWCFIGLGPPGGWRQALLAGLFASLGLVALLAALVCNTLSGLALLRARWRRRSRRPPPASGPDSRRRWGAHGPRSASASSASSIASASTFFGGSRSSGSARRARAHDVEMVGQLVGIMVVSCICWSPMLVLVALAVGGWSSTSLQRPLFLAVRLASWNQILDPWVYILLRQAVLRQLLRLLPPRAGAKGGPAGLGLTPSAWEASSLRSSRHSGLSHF
# Experiment: human EP1 calcium mobilisation assay
# Type: cell-based
# Settings: human EP1, PGE2-induced calcium mobilisation in CHO-K1 cells; free bases or sodium salts; averages of a number of experiments; read-out: functional pKi value (converted)
# Protocol: Briefly, the antagonist properties of compounds are assessed by their ability to inhibit the mobilisation of intracellular calcium ([Ca^2+]i) in response to activation of EP1 or EP3 receptors by the natural agonist hormone prostaglandin E2 (PGE2). Increasing concentrations of antagonist reduce the amount of calcium that a given concentration of PGE2 can mobilise. The net effect is to displace the PGE2 concentration-effect curve to higher concentrations of PGE2. The amount of calcium produced is assessed using a calcium-sensitive fluorescent dye such as Fluo-4, AM and a suitable instrument such as a Fluorimetric Imaging Plate Reader (FLIPR). Increasing amounts of [Ca^2+]i produced by receptor activation increase the amount of fluorescence produced by the dye and give rise to an increasing signal. The signal may be detected using the FLIPR instrument and the data generated may be analysed with suitable curve-fitting software.
# The human EP1 or EP3 calcium mobilisation assay (hereafter referred to as ‘the calcium assay’) utilises Chinese hamster ovary-K1(CHO-K1) cells into which a stable (pCIN; BioTechniques 20 (1996): 102-110) vector containing either EP1 or EP3 cDNA has previously been transfected. Cells are cultured in suitable flasks containing culture medium such as DMEM:F-12 supplemented with 10% v/v foetal calf serum, 2 mM L-glutamine, 0.25 mg/ml geneticin, 100 μM flurbiprofen and 10 μg/ml puromycin.
# For assay, cells are harvested using a proprietary reagent that dislodges cells such as Versene. Cells are re-suspended in a suitable quantity of fresh culture media for introduction into a 384-well plate. Following incubation for 24 hours at 37° C. the culture media is replaced with a medium containing Fluo-4 and the detergent pluronic acid, and a further incubation takes place. Concentrations of compounds are then added to the plate in order to construct concentration-effect curves. This may be performed on the FLIPR in order to assess the agonist properties of the compounds. Concentrations of PGE2 are then added to the plate in order to assess the antagonist properties of the compounds.
# The data so generated may be analysed by means of a computerised curve-fitting routine. The concentration of compound that elicits a half-maximal inhibition of the calcium mobilisation induced by PGE2 (pIC50) may then be estimated.
row,Compound,Ki
1,"CC(C)COc1ccc(Cl)cc1Cc1ccc(C(=O)NCc2cccc3ccccc23)o1 [Example 47, 5-({5-Chloro-2-[(2-methylpropyl)oxy]phenyl}methyl)-N-(1-naphthalenylmethyl)-2-furancarboxamide]",< 1 µM
2,"CCCOc1ccc(Cl)cc1Cc1ccc(C(=O)Nc2c(F)cccc2F)o1 [Example 93, 5-{[5-Chloro-2-(propyloxy)phenyl]methyl}-N-(2,6-difluorophenyl)-2-furancarboxamide]",< 1 µM
3,"O=C(Nc1ccccc1Br)c1ccc(Cc2cc(Cl)ccc2OCc2ccccc2)o1 [Example 76, N-(2-bromophenyl)-5-({5-chloro-2-[(phenylmethyl)oxy]-phenyl}methyl)-2-furancarboxamide]",< 1 µM
4,"O=C(Nc1c(F)cccc1F)c1ccc(Cc2cc(Cl)ccc2OCc2cccnc2)o1 [Example 92, 5-({5-Chloro-2-[(3-pyridinylmethyl)oxy]phenyl}methyl)-N-(2,6-difluorophenyl)-2-furancarboxamide]",< 1 µM
5,"CC(C)NC(=O)c1ccc(Cc2cc(Cl)ccc2OCc2ccccc2)o1 [Example 49, 5-({5-Chloro-2-[(phenylmethyl)oxy]phenyl}methyl)-N-(1-methylethyl)-2-furancarboxamide]",< 1 µM
6,"CC(C)COc1ccc(Cl)cc1Cc1ccc(NC(=O)OC(C)(C)C)o1 [Example 29, 1,1-Dimethylethyl[5-({5-chloro-2-[(2-methylpropyl)oxy]phenyl}methyl)-2-furanyl]carbamate]",< 1 µM
7,"Clc1ccc(OCc2ccccc2)c(Cc2ccc(-c3nc4ccc(CN5CCCC5)cc4[nH]3)o2)c1 [Example 140, 2-[5-({5-Chloro-2-[(phenylmethyl)oxy]-phenyl}methyl)-2-furanyl]-5-(1-pyrrolidinylmethyl)-1H-benzimidazoledihydrochloride]",< 1 µM
8,"O=C(Nc1ccccc1-c1ccccc1)c1ccc(Cc2cc(Cl)ccc2OCc2ccccc2)o1 [Example 75, N-2-biphenylyl-5-({5-chloro-2-[(phenylmethyl)oxy]-phenyl}methyl)-2-furancarboxamide]",> 1 µM

# Results, then the compound that gave them:
row,Ki,Compound
1,< 1 µM,"CC(C)COc1ccc(Cl)cc1Cc1ccc(-c2nc3cc(F)c(F)cc3[nH]2)o1 [Example 124, 2-[5-({5-Chloro-2-[(2-methylpropyl)oxy]phenyl}-methyl)-2-furanyl]-5,6-difluoro-1H-benzimidazole]"
2,< 1 µM,"COc1ccc(CNC(=O)c2ccc(Cc3cc(Cl)ccc3OCC(C)C)o2)cc1 [Example 40, 5-({5-Chloro-2-[(2-methylpropyl)oxy]phenyl}methyl)-N-{[4-(methyloxy)phenyl]methyl}-2-furancarboxamide]"
3,< 1 µM,"Clc1ccc(OCc2ccccc2)c(Cc2ccc(-c3nc4cnccc4[nH]3)o2)c1 [Example 120, 2-[5-({5-Chloro-2-[(phenylmethyl)oxy]-phenyl}methyl)-2-furanyl]-1H-imidazo[4,5-c]pyridine hydrochloride]"
4,< 1 µM,"CC(C)COc1ccc(Cl)cc1Cc1ccc(-c2nc3ccc(CN(C)CC(C)(C)C)cc3[nH]2)o1 [Example 153, N-({2-[5-({5-Chloro-2-[(2-methylpropyl)oxy]-phenyl}methyl)-2-furanyl]-1H-benzimidazol-5-yl}methyl)-N,2,2-trimethyl-1-propanaminedihydrochloride]"
5,< 1 µM,"CC(C)COc1ccc(Cl)cc1Cc1ccc(-c2nc3cc(CN(C)C)cnc3[nH]2)o1 [Example 164, ({2-[5-({5-Chloro-2-[(2-methylpropyl)oxy]-phenyl}methyl)-2-furanyl]-1H-imidazo[4,5-b]pyridin-6-yl}methyl)dimethyl-amine dihydrochloride]"
6,< 1 µM,"C=Cc1cnc2[nH]c(-c3ccc(Cc4cc(Cl)ccc4OCC(C)C)o3)nc2c1 [Example 137, 2-[5-({5-Chloro-2-[(2-methylpropyl)oxy]phenyl}methyl)-2-furanyl]-6-ethenyl-1H-imidazo[4,5-b]pyridine hydrochloride]"
7,< 1 µM,"CC(C)COc1ccc(Cl)cc1Cc1ccc(-c2nc3cscc3[nH]2)o1 [Example 109, 2-[5-({5-Chloro-2-[(2-methylpropyl)oxy]-phenyl}methyl)-2-furanyl]-1H-thieno[3,4-d]imidazole]"
